Calls of active or inactive are those of the source. No cut-off for these calls is given here.
Test system: Mycobacterium tuberculosis
Assay: Antituberculosis activity against Mycobacterium tuberculosis at 12.5 ug/mL
Format: functional, organism-based

Q: For `COc1cc(O)c2c(c1)[C@@](O)([C@H]1OC[C@H](OC(C)=O)[C@H](OC(=O)C=C(C)C)[C@H]1O)c1cc(C)cc(O)c1C2=O`, which Activity is on record?
A: inactive

Q: `COc1cc(O)c2c(c1)C(=O)c1cc(C)cc(O)c1C2=O` was tested. Which Activity did it give?
A: inactive

Q: With `COc1cc(O)c2c(c1)[C@H]([C@H]1OC[C@H](OC(C)=O)[C@H](OC(=O)C=C(C)C)[C@H]1O)c1cc(C)cc(O)c1C2=O` as the molecule, how does the Activity read?
A: inactive

Q: For `COc1cc(O)c2c(c1)[C@](O)([C@H]1OC[C@H](OC(C)=O)[C@H](OC(=O)C=C(C)C)[C@H]1O)c1cc(C)cc(O)c1C2=O`, which Activity is on record?
A: inactive

Q: With `COc1cc(O)c2c(c1)[C@@H]([C@H]1OC[C@H](OC(C)=O)[C@H](OC(=O)C=C(C)C)[C@H]1O)c1cc(C)cc(O)c1C2=O` as the molecule, how does the Activity read?
A: inactive

Q: For `Cc1cc(O)c2c(c1)C(=O)c1cccc(O)c1C2=O`, which Activity is on record?
A: inactive
